Data taken from patent US8940739B2, “Compound of a reverse-turn mimetic and a production method and use therefor” (JW Pharmaceutical Corporation, priority 2010, dated 2015).

Tested on: MV-4-11 (human, Acute Myeloid Leukemia cell line) cells
Experiment: Cell growth inhibition assay, GI50 of MV-4-11
Format: cell-based
Conditions: Homo sapiens, MV4-11, 72 h, MV-4-11 cells
Protocol: The anti-proliferative activity (cell growth inhibition assay) of the compounds according to the present invention against AML (Acute Myeloid Leukemia) cancer cells was measured. […] The lower the GI50 value, the higher the anti-proliferative activity.
A cell growth Inhibition assay was performed to investigate the rate of inhibition of cell proliferation by the compounds of the present invention. MV-4-11 (human, Acute Myeloid Leukemia cell line) cells were cultured in Iscove's modified Dulbecco's medium (IMDM) including 10% fetal bovine serum (FBS), 1× penicillin/streptomycin (10,000 units/ml Penicillin, […] Streptomycin in 0.85% NaCl). MV-4-11 cells were harvested with the IMDM and 5×10^4 cells/well were transferred to each well of 96-well culture plates (Nunc, #167008).
The compounds of Examples 1 to 5 were exposed to serial dilution and duplicated for each concentration. For the serial dilution, the compounds of the present invention were repeatedly diluted with the same volume of media onto 96-well assay block (costar, #3956). After the dilution, each compound was added to each well.
Also, the background absorbance was measured during the treatment with the test compounds by replacing the test compound with IMDM in the negative control plate. The plates were incubated for three days (72 hours) at 37 in the humidified incubator containing 5% CO2. On the last day, 20 µl of a CellTiter 96 Aqueous One Solution (Promega #G3581) was added to the culture in each well and the plates were incubated for a few hours at 37 in the humidified incubator containing 5% CO2. After the incubation, the absorbance of each cell was measured at 490 nm using an EnVision (Perkinelmer, USA).
The GI50 values were calculated using a Prism 3.0 program.

Compound | GI50 [µM]
C=CCN1CC(=O)N2[C@@H](Cc3ccc(O)cc3)C(=O)N(Cc3cccc4c(C(=O)NCc5cccc(N6CCOCC6)n5)cn(C)c34)C[C@@H]2N1C(=O)NCc1ccccc1 [Compound F-50] | 0.0016
C=CCN1CC(=O)N2[C@@H](Cc3ccc(O)cc3)C(=O)N(Cc3cccc4c(C(=O)NCCc5cccnc5)cn(C)c34)C[C@@H]2N1C(=O)NCc1ccccc1 [Compound F-52] | 0.0046
C=CCN1CC(=O)N2C(CN(Cc3cccc4c(C(=O)Nc5ccc(O)cc5)cn(C)c34)C(=O)[C@@H]2Cc2ccc(O)cc2)N1C(=O)NCc1ccccc1 (some centres unmarked) [Compound G-2] | 0.008
C=CCN1CC(=O)N2C(CN(Cc3cccc4c(C(=O)Nc5ccc(SC)cc5)cn(C)c34)C(=O)[C@@H]2Cc2ccc(O)cc2)N1C(=O)NCc1ccccc1 (some centres unmarked) [Compound G-7] | 0.0105
C=CCN1CC(=O)N2C(CN(Cc3cccc4c(C(=O)Nc5ccc(N)cc5)cn(C)c34)C(=O)[C@@H]2Cc2ccc(O)cc2)N1C(=O)NCc1ccccc1 (some centres unmarked) [Compound G-8] | 0.0074
C=CCN1CC(=O)N2C(CN(Cc3cccc4c(C(=O)Nc5ccc(N)nc5)cn(C)c34)C(=O)[C@@H]2Cc2ccc(O)cc2)N1C(=O)NCc1ccccc1 (some centres unmarked) [Compound G-9] | 0.0199
C=CCN1CC(=O)N2C(CN(Cc3cccc4c(C(=O)Nc5ccc(N(C)C)cc5)cn(C)c34)C(=O)[C@@H]2Cc2ccc(O)cc2)N1C(=O)NCc1ccccc1 (some centres unmarked) [Compound G-14] | 0.0012
C=CCN1CC(=O)N2C(Cc3ccc(O)cc3)C(=O)N(Cc3cccc4c(C(=O)Nc5ccc(NCC)nc5)cn(C)c34)CC2N1C(=O)NCc1ccccc1 (centres unmarked) [Compound G-16] | 0.0017
C=CCN1CC(=O)N2C(Cc3ccc(O)cc3)C(=O)N(Cc3cccc4c(C(=O)Nc5ccc(N(C)CC(C)C)nc5)cn(C)c34)CC2N1C(=O)NCc1ccccc1 (centres unmarked) [Compound G-17] | 0.002
C=CCN1CC(=O)N2C(CN(Cc3cccc4c(C(=O)Nc5ccc(NCCCO)nc5)cn(C)c34)C(=O)[C@@H]2Cc2ccc(O)cc2)N1C(=O)NCc1ccccc1 (some centres unmarked) [Compound G-19] | 0.0093
C=CCN1CC(=O)N2C(CN(Cc3cccc4c(C(=O)Nc5ccc(N(C)CCCO)nc5)cn(C)c34)C(=O)[C@@H]2Cc2ccc(O)cc2)N1C(=O)NCc1ccccc1 (some centres unmarked) [Compound G-20] | 0.0017
C=CCN1CC(=O)N2C(Cc3ccc(O)cc3)C(=O)N(Cc3cccc4c(C(=O)Nc5ccc(NCCN6CCN(C)CC6)nc5)cn(C)c34)CC2N1C(=O)NCc1ccccc1 (centres unmarked) [Compound G-30] | 0.005
C=CCN1CC(=O)N2[C@@H](Cc3ccc(O)cc3)C(=O)N(Cc3cccc4c(C(=O)Nc5ccc(N(C)Cc6cncn6C)nc5)cn(C)c34)C[C@@H]2N1C(=O)NCc1ccccc1 [Compound G-34] | 0.00137
C=CCN1CC(=O)N2C(CN(Cc3cccc4c(C(=O)Nc5ccc(N6CCN(C)CC6)cc5)cn(C)c34)C(=O)[C@@H]2Cc2ccc(O)cc2)N1C(=O)NCc1ccccc1 (some centres unmarked) [Compound G-40] | 0.0013
C=CCN1CC(=O)N2[C@@H](Cc3ccc(O)cc3)C(=O)N(Cc3cccc4c(C(=O)Nc5ccc(N6CCC(N(C)C)CC6)nc5)cn(C)c34)C[C@@H]2N1C(=O)NCc1ccccc1 [Compound G-45] | 0.0012
C=CCN1CC(=O)N2C(CN(Cc3cccc4c(C(=O)Nc5ccc(N6CCC(N7CCOCC7)CC6)nc5)cn(C)c34)C(=O)[C@@H]2Cc2ccc(O)cc2)N1C(=O)NCc1ccccc1 (some centres unmarked) [Compound G-56] | 0.0013
C=CCN1CC(=O)N2[C@@H](Cc3ccc(O)cc3)C(=O)N(Cc3cccc4c(-c5ccc(C(C)=O)s5)cn(C)c34)C[C@@H]2N1C(=O)NCc1ccccc1 [Compound H-8] | 0.0057

Molecular target: cDNA-expressed human hepatic CYP3A4 (Homo sapiens (Human), UniProt P08684)
Experiment: Measurement of CYP (IC50 of P450 CYP3A4), BFC substrate
Format: in vitro ADME
Conditions: 20 minutes
Protocol: The compounds of the present invention had lower P450 CYP3A4 inhibitory activity (higher IC50). Lower CYP3A4 inhibitory activity means that the compounds of the present invention cause fewer side-effects from the pharmacological point of view.
This assay was performed in a 200 l volume in 96-well microtiter plates using cDNA-expressed human hepatic CYP3A4 (supersome, BD Gentest™ #456202). As a substrate for CYP3A4, 7-benzyloxy-4-trifluoromethyl-coumarin (BFC) was used. The compounds of Examples 1 to 5 and the substrate BFC were dissolved in 100% acetonitrile. The final volume of acetonitrile of the incubation mixture was less than 1% (volume/volume). A potassium phosphate buffer (pH 7.4, final concentration 0.1M), MgCl2 (final concentration 8.3 mM), EDTA (final concentration 1.67 mM), an inventive compound stock solution, CYP3A4 supersome, and NADPH (final concentration 0.25 mM) were added to each well. The reaction was initiated by adding the substrate (BFC, final concentration 30 µM) at 37. The incubation was performed for 20 minutes and then the reaction was terminated by the addition of 75 μl of acetonitrile: 0.5 M tris-base=4:1 (volume/volume).
Then, a fluorescent signal was measured using a fluorometer. A BFC metabolite, 7-hydroxy-4-trifluoromethyl-coumarin, was measured using an excitation wavelength of 409 nm and an emission wavelength of 530 nm.

cDNA-expressed human hepatic CYP3A4, sequence (P08684 whole entry): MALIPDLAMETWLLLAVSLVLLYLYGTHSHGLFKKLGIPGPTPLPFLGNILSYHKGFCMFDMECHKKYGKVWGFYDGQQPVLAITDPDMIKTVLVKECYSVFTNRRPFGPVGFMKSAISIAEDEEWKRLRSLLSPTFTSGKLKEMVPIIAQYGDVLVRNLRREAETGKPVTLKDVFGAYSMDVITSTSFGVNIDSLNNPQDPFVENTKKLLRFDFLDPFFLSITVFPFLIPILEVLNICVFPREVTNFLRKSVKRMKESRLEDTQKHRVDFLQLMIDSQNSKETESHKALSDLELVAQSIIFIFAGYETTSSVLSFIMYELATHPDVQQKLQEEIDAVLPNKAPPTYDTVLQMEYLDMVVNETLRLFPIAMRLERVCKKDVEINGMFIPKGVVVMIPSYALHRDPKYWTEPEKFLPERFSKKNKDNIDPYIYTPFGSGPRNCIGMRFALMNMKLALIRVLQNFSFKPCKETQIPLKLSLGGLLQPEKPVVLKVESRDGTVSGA

Compound | IC50 [µM]
C=CCN1CC(=O)N2[C@@H](Cc3ccc(O)cc3)C(=O)N(Cc3cccc4c(-c5cccc(C(=O)Nc6ccccc6)c5)cn(C)c34)C[C@@H]2N1C(=O)NCc1ccccc1 [Compound D-14] | 2.13
C=CCN1CC(=O)N2[C@@H](Cc3ccc(O)cc3)C(=O)N(Cc3cccc4c(-c5ccc(C(=O)Nc6cccc(OCc7ccccc7)c6)cc5)cn(C)c34)C[C@@H]2N1C(=O)NCc1ccccc1 [Compound D-20] | 17.2
C=CCN1CC(=O)N2[C@@H](Cc3ccc(O)cc3)C(=O)N(Cc3cccc4c(-c5ccc(C(=O)Nc6ccc(OCCCC)cc6)cc5)cn(C)c34)C[C@@H]2N1C(=O)NCc1ccccc1 [Compound D-23] | > 25
C=CCN1CC(=O)N2[C@@H](Cc3ccc(O)cc3)C(=O)N(Cc3cccc4c(-c5cccc(C(=O)Nc6ccc(N7CCN(c8ccc(OC)cc8)CC7)cc6)c5)cn(C)c34)C[C@@H]2N1C(=O)NCc1ccccc1 [Compound D-25] | > 25
C=CCN1CC(=O)N2[C@@H](Cc3ccc(O)cc3)C(=O)N(Cc3cccc4c(-c5ccc(NC(=O)CCCCCCC)cc5)cn(C)c34)C[C@@H]2N1C(=O)NCc1ccccc1 [Compound D-52] | 21.7
C=CCN1CC(=O)N2[C@@H](Cc3ccc(O)cc3)C(=O)N(Cc3cccc4c(-c5ccc(NC(=O)c6ccc(N(CC)CC)cc6)cc5)cn(C)c34)C[C@@H]2N1C(=O)NCc1ccccc1 [Compound D-57] | > 25
C=CCN1CC(=O)N2[C@@H](Cc3ccc(O)cc3)C(=O)N(Cc3cccc4c(-c5ccc(NC(=O)CCCNCCC(C)=O)cc5)cn(C)c34)C[C@@H]2N1C(=O)NCc1ccccc1 [Compound D-72] | 2.78
C=CCN1CC(=O)N2[C@@H](Cc3ccc(O)cc3)C(=O)N(Cc3cccc4c(-c5ccc(NC(=O)NCC(C)(C)C)nc5)cn(C)c34)C[C@@H]2N1C(=O)NCc1ccccc1 [Compound D-96] | 2.19
C=CCN1CC(=O)N2[C@@H](Cc3ccc(O)cc3)C(=O)N(Cc3cccc4c(C(=O)N5CCN(CCO)CC5)cn(C)c34)C[C@@H]2N1C(=O)NCc1ccccc1 [Compound E-9] | 6.82
C=CCN1CC(=O)N2[C@@H](Cc3ccc(O)cc3)C(=O)N(Cc3cccc4c(C(=O)N5CCN(CCCO)CC5)cn(C)c34)C[C@@H]2N1C(=O)NCc1ccccc1 [Compound E-11] | 11.3
C=CCN1CC(=O)N2[C@@H](Cc3ccc(O)cc3)C(=O)N(Cc3cccc4c(C(=O)N5CCN(CCCCO)CC5)cn(C)c34)C[C@@H]2N1C(=O)NCc1ccccc1 [Compound E-12] | 9.3
C=CCN1CC(=O)N2[C@@H](Cc3ccc(O)cc3)C(=O)N(Cc3cccc4c(C(=O)N5CCN(C(C)=O)CC5)cn(C)c34)C[C@@H]2N1C(=O)NCc1ccccc1 [Compound E-14] | 10.9
C=CCN1CC(=O)N2[C@@H](Cc3ccc(O)cc3)C(=O)N(Cc3cccc4c(C(=O)N5CCN(S(C)(=O)=O)CC5)cn(C)c34)C[C@@H]2N1C(=O)NCc1ccccc1 [Compound E-15] | 11.2
C=CCN1CC(=O)N2[C@@H](Cc3ccc(O)cc3)C(=O)N(Cc3cccc4c(C(=O)N5CCN(S(=O)(=O)CC)CC5)cn(C)c34)C[C@@H]2N1C(=O)NCc1ccccc1 [Compound E-16] | 2.82
C=CCN1CC(=O)N2[C@@H](Cc3ccc(O)cc3)C(=O)N(Cc3cccc4c(C(=O)N5CCN(CC6CCCC6)CC5)cn(C)c34)C[C@@H]2N1C(=O)NCc1ccccc1 [Compound E-21] | > 25
C=CCN1CC(=O)N2[C@@H](Cc3ccc(O)cc3)C(=O)N(Cc3cccc4c(C(=O)N5CCN(CCN6CCCCC6)CC5)cn(C)c34)C[C@@H]2N1C(=O)NCc1ccccc1 [Compound E-24] | 5.53
C=CCN1CC(=O)N2[C@@H](Cc3ccc(O)cc3)C(=O)N(Cc3cccc4c(C(=O)NN5CCN(c6ccccn6)CC5)cn(C)c34)C[C@@H]2N1C(=O)NCc1ccccc1 [Compound E-38] | 2.48
C=CCN1CC(=O)N2[C@@H](Cc3ccc(O)cc3)C(=O)N(Cc3cccc4c(C(=O)N5CCCN(C)CC5)cn(C)c34)C[C@@H]2N1C(=O)NCc1ccccc1 [Compound E-42] | 3.63
C=CCN1CC(=O)N2[C@@H](Cc3ccc(O)cc3)C(=O)N(Cc3cccc4c(C(=O)N5CCN6CCN(C(C)=O)CC6C5)cn(C)c34)C[C@@H]2N1C(=O)NCc1ccccc1 (some centres unmarked) [Compound E-44] | 15
C=CCN1CC(=O)N2[C@@H](Cc3ccc(O)cc3)C(=O)N(Cc3cccc4c(C(=O)N5CCN6CCN(C=O)CC6C5)cn(C)c34)C[C@@H]2N1C(=O)NCc1ccccc1 (some centres unmarked) [Compound E-48] | 12.1
C=CCN1CC(=O)N2[C@@H](Cc3ccc(O)cc3)C(=O)N(Cc3cccc4c(C(=O)N5CCN6CCN(CC)CC6C5)cn(C)c34)C[C@@H]2N1C(=O)NCc1ccccc1 (some centres unmarked) [Compound E-50] | 5.04
